How the values were obtained:
[1] = target: T1, NAMPT (Homo sapiens, UniProt P43490); assay: Time-Resolved Fluorescence Resonance Energy Transfer (TR-FRET) Binding Assay of NAMPT; conditions: 6.8 nM NAMPT, 200 nM probe, equilibrated 3 hours, no substrates
Method in brief: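 IC50s come from four-parameter logistic fits of control-normalized Em520/Em495 TR-FRET ratios (Ex 337 nm) against compound concentration. Before reading, enzyme, probe, antibody and compound equilibrated for 3 h at room temperature.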

[2] = target: T1, NAMPT; assay: TR-FRET Binding Assay of NAMPT with PRPP; conditions: 2 nM NAMPT, 2 nM probe, 200 µM PRPP and 2.5 mM ATP, equilibrated 16 hours
Method in brief: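 Substrates present: PRPP at 200 µM and ATP at 2.5 mM, final, alongside 2 nM enzyme, 2 nM tracer and 1 nM terbium anti-His donor in 2% DMSO. A 16-hour equilibration preceded the time-resolved FRET read, allowing compounds to be enzymatically modified.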

[3] = system: PC3 cells; assay: NAMPT Cell Proliferation Assay (Cell Titer Glo); assay type: cell-based; conditions: Homo sapiens, PC-3, 120 h, incubated 5 days, cell viability
Method in brief: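 Viability measured by Cell Titer Glo luminescence after 5-day exposure of attached PC3 cells to compound, dosed as 10-fold serial dilutions ([…]) in RPMI/10% FBS at 37 °C and 5% CO2. Percent inhibition fitted to sigmoidal dose-response curves for IC50.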

T1 sequence (P43490 whole entry): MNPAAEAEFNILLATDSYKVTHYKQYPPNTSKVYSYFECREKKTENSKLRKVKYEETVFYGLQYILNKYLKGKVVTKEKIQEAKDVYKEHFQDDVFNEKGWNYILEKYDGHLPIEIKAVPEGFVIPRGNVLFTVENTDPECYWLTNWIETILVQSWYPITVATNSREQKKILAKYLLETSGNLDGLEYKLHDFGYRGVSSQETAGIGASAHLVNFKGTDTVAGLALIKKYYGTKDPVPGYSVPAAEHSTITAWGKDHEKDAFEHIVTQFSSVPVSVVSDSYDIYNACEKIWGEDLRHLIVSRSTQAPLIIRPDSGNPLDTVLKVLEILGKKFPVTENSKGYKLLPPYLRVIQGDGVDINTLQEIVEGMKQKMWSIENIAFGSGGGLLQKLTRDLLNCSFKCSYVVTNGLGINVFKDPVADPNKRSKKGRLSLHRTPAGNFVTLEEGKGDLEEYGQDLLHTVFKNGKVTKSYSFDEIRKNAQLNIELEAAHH

| Compound | IC50 [1] | IC50 [2] | IC50 [3] |
| --- | --- | --- | --- |
| O=C(CC(F)(F)F)N1CC(c2ccc(NC(=O)N3CC(c4cccnc4)C3)cc2)C1 [Example 108, 3-(pyridin-3-yl)-N-{4-[1-(3,3,3-trifluoropropanoyl)azetidin-3-yl]phenyl}azetidine-1-carboxamide] | 122 nM | 0.411 nM | 81.5 nM |
| O=C(Nc1ccc(C2CN(C(=O)C3CC3)C2)cc1)N1CC(c2cccnc2)C1 [Example 109, N-{4-[1-(cyclopropylcarbonyl)azetidin-3-yl]phenyl}-3-(pyridin-3-yl)azetidine-1-carboxamide] | 306 nM | 0.596 nM | 110 nM |
| CC[C@H](C)C(=O)N1CC(c2ccc(NC(=O)N3CC(c4cccnc4)C3)cc2)C1 [Example 110, N-(4-{1-[(2S)-2-methylbutanoyl]azetidin-3-yl}phenyl)-3-(pyridin-3-yl)azetidine-1-carboxamide] | 35.3 nM | 0.421 nM | 11.8 nM |
| CCCC(=O)N1CC(c2ccc(NC(=O)N3CC(c4cccnc4)C3)cc2)C1 [Example 111, N-[4-(1-butanoylazetidin-3-yl)phenyl]-3-(pyridin-3-yl)azetidine-1-carboxamide] | 53.9 nM | 0.292 nM | 29.2 nM |
| CC(C)(C)OC(=O)N1CCC(c2ccc(NC(=O)N3CC(c4cccnc4Cl)C3)cc2)CC1 [Example 112, tert-butyl 4-[4-({[3-(2-chloropyridin-3-yl)azetidin-1-yl]carbonyl}amino)phenyl]piperidine-1-carboxylate] | 43.5 nM | 45.9 nM | 906 nM |
| CC(C)(C)OC(=O)N1CCC(c2ccc(NC(=O)N3CC(c4cnccc4Cl)C3)cc2)CC1 [Example 113, tert-butyl 4-[4-({[3-(4-chloropyridin-3-yl)azetidin-1-yl]carbonyl}amino)phenyl]piperidine-1-carboxylate] | 75.8 nM | 14.7 nM | 113 nM |
| O=C(CC1CC1)N1CC(Oc2ccc(NC(=O)N3CC(c4cccnc4)C3)cc2)C1 [Example 114, N-(4-{[1-(cyclopropylacetyl)azetidin-3-yl]oxy}phenyl)-3-(pyridin-3-yl)azetidine-1-carboxamide] | 15.8 nM | 0.189 nM | 8.11 nM |
| CC(C)(C)OC(=O)N1CCC(c2ccc(NC(=O)N3CC(c4cccnc4F)C3)cc2)CC1 [Example 116, tert-butyl 4-[4-({[3-(2-fluoropyridin-3-yl)azetidin-1-yl]carbonyl}amino)phenyl]piperidine-1-carboxylate] | 26.7 nM | 0.744 nM | 135 nM |
| CCCCC(=O)N1CC(Oc2ccc(NC(=O)N3CC(c4cccnc4)C3)cc2)C1 [Example 117, N-{4-[(1-pentanoylazetidin-3-yl)oxy]phenyl}-3-(pyridin-3-yl)azetidine-1-carboxamide] | 18.8 nM | 0.327 nM | 9.83 nM |
| COCCOCC(=O)N1CC(Oc2ccc(NC(=O)N3CC(c4cccnc4)C3)cc2)C1 [Example 118, N-[4-({1-[(2-methoxyethoxy)acetyl]azetidin-3-yl}oxy)phenyl]-3-(pyridin-3-yl)azetidine-1-carboxamide] | 36 nM | 0.324 nM | 77.7 nM |
| CCOCC(=O)N1CC(Oc2ccc(NC(=O)N3CC(c4cccnc4)C3)cc2)C1 [Example 119, N-(4-{[1-(ethoxyacetyl)azetidin-3-yl]oxy}phenyl)-3-(pyridin-3-yl)azetidine-1-carboxamide] | 117 nM | 0.978 nM | 76.9 nM |
| COCC(=O)N1CC(Oc2ccc(NC(=O)N3CC(c4cccnc4)C3)cc2)C1 [Example 120, N-(4-{[1-(methoxyacetyl)azetidin-3-yl]oxy}phenyl)-3-(pyridin-3-yl)azetidine-1-carboxamide] | 145 nM | 0.689 nM | 78 nM |
| CCC(C)CC(=O)N1CC(Oc2ccc(NC(=O)N3CC(c4cccnc4)C3)cc2)C1 (stereo not drawn) [Example 121, N-(4-{[1-(3-methylpentanoyl)azetidin-3-yl]oxy}phenyl)-3-(pyridin-3-yl)azetidine-1-carboxamide] | 18.6 nM | 0.497 nM | 7.73 nM |
| O=C(CC1C[C@@H]2CC[C@H]1C2)N1CC(Oc2ccc(NC(=O)N3CC(c4cccnc4)C3)cc2)C1 (stereo partly drawn) [Example 122, N-[4-({1-[(1S,4R)-bicyclo[2.2.1]hept-2-ylacetyl]azetidin-3-yl}oxy)phenyl]-3-(pyridin-3-yl)azetidine-1-carboxamide] | 16.6 nM | 0.588 nM | 8.81 nM |
| CC(C)CCC(=O)N1CC(Oc2ccc(NC(=O)N3CC(c4cccnc4)C3)cc2)C1 [Example 124, N-(4-{[1-(4-methylpentanoyl)azetidin-3-yl]oxy}phenyl)-3-(pyridin-3-yl)azetidine-1-carboxamide] | 14.9 nM | 0.375 nM | 7.75 nM |
| CC1CC1C(=O)N1CC(Oc2ccc(NC(=O)N3CC(c4cccnc4)C3)cc2)C1 (stereo not drawn) [Example 125, N-[4-({1-[(2-methylcyclopropyl)carbonyl]azetidin-3-yl}oxy)phenyl]-3-(pyridin-3-yl)azetidine-1-carboxamide] | 29.3 nM | 0.271 nM | 8.12 nM |
| O=C(CCC(F)(F)F)N1CC(Oc2ccc(NC(=O)N3CC(c4cccnc4)C3)cc2)C1 [Example 126, 3-(pyridin-3-yl)-N-(4-{[1-(4,4,4-trifluorobutanoyl)azetidin-3-yl]oxy}phenyl)azetidine-1-carboxamide] | 14.4 nM | 0.401 nM | 7.38 nM |
| CC(C)C(=O)N1CC(Oc2ccc(NC(=O)N3CC(c4cccnc4)C3)cc2)C1 [Example 127, N-(4-{[1-(2-methylpropanoyl)azetidin-3-yl]oxy}phenyl)-3-(pyridin-3-yl)azetidine-1-carboxamide] | 93.4 nM | 0.603 nM | 71 nM |
| CC(C)(C)C(=O)N1CC(Oc2ccc(NC(=O)N3CC(c4cccnc4)C3)cc2)C1 [Example 128, N-(4-{[1-(2,2-dimethylpropanoyl)azetidin-3-yl]oxy}phenyl)-3-(pyridin-3-yl)azetidine-1-carboxamide] | 30.4 nM | 0.519 nM | 8.36 nM |
| CCCC(=O)N1CC(Oc2ccc(NC(=O)N3CC(c4cccnc4)C3)cc2)C1 [Example 129, N-{4-[(1-butanoylazetidin-3-yl)oxy]phenyl}-3-(pyridin-3-yl)azetidine-1-carboxamide] | 40 nM | 0.401 nM | 11.3 nM |
| CCC(=O)N1CC(Oc2ccc(NC(=O)N3CC(c4cccnc4)C3)cc2)C1 [Example 130, N-{4-[(1-propanoylazetidin-3-yl)oxy]phenyl}-3-(pyridin-3-yl)azetidine-1-carboxamide] | 84.7 nM | 0.559 nM | 78.7 nM |
| CCC(C)(C)C(=O)N1CC(Oc2ccc(NC(=O)N3CC(c4cccnc4)C3)cc2)C1 [Example 131, N-(4-{[1-(2,2-dimethylbutanoyl)azetidin-3-yl]oxy}phenyl)-3-(pyridin-3-yl)azetidine-1-carboxamide] | 7.72 nM | 0.491 nM | 8.18 nM |
| CC(C)CC(=O)N1CC(Oc2ccc(NC(=O)N3CC(c4cccnc4)C3)cc2)C1 [Example 132, N-(4-{[1-(3-methylbutanoyl)azetidin-3-yl]oxy}phenyl)-3-(pyridin-3-yl)azetidine-1-carboxamide] | 19.1 nM | 0.634 nM | 7.77 nM |
| CC(C)(C)CC(=O)N1CC(Oc2ccc(NC(=O)N3CC(c4cccnc4)C3)cc2)C1 [Example 133, N-(4-{[1-(3,3-dimethylbutanoyl)azetidin-3-yl]oxy}phenyl)-3-(pyridin-3-yl)azetidine-1-carboxamide] | 13.2 nM | 0.358 nM | 4.43 nM |
| O=C(CC(F)(F)F)N1CC(Oc2ccc(NC(=O)N3CC(c4cccnc4)C3)cc2)C1 [Example 134, 3-(pyridin-3-yl)-N-(4-{[1-(3,3,3-trifluoropropanoyl)azetidin-3-yl]oxy}phenyl)azetidine-1-carboxamide] | 54.2 nM | 0.317 nM | 28.3 nM |
| CC1(C(=O)N2CC(Oc3ccc(NC(=O)N4CC(c5cccnc5)C4)cc3)C2)CC1 [Example 135, N-[4-({1-[(1-methylcyclopropyl)carbonyl]azetidin-3-yl}oxy)phenyl]-3-(pyridin-3-yl)azetidine-1-carboxamide] | 28.1 nM | 0.376 nM | 8.69 nM |
| CCCC(C)C(=O)N1CC(Oc2ccc(NC(=O)N3CC(c4cccnc4)C3)cc2)C1 (stereo not drawn) [Example 136, N-(4-{[1-(2-methylpentanoyl)azetidin-3-yl]oxy}phenyl)-3-(pyridin-3-yl)azetidine-1-carboxamide] | 15 nM | 0.544 nM | 7.42 nM |
| CC(=O)N1CC(Oc2ccc(NC(=O)N3CC(c4cccnc4)C3)cc2)C1 [Example 137, N-{4-[(1-acetylazetidin-3-yl)oxy]phenyl}-3-(pyridin-3-yl)azetidine-1-carboxamide] | 98.8 nM | 0.44 nM | 51.6 nM |
| O=C(CC1CCCCC1)N1CC(Oc2ccc(NC(=O)N3CC(c4cccnc4)C3)cc2)C1 [Example 138, N-(4-{[1-(cyclohexylacetyl)azetidin-3-yl]oxy}phenyl)-3-(pyridin-3-yl)azetidine-1-carboxamide] | 11.4 nM | 0.596 nM | 8.38 nM |

— patent publication US9296723B2, “NAMPT inhibitors” (AbbVie Inc., priority 2012, dated 2016)
